≈ marks a conversion by molar mass, not a printed value. Where “and” joins values, the source holds several entries; their conditions need not be identical. Equal values may be shown once. Read-outs that look alike come from different tables or passages of the source.

The subject of experiment [1] is Staphylococcus aureus (ATCC25923). In words: Microdilution MIC assay (CLSI-based), S. aureus. The following applies: 20 hours incubation at 35-37° C., MHB; for MIC: read-out: Minimum inhibitory concentration S. aureus ATCC25923. It counts as cell-based. As to the method: (§1) The antibacterial activity of compounds was measured using a standard microdilution assay based on the Clinical and Laboratory Standards Institute (CLSI) guidelines. This method was slightly modified. Indeed, assay volumes were increased to 200 μL to improve reproducibility. The chemical compounds to be tested were in the form of salts for biological testing.
(§2) Bacteria tested: Antibacterial activities of the compounds were tested on Staphylococcus aureus (ATCC25923), Enterococcus faecalis (ATCC29212), Escherichia coli ([…]) and Pseudomonas aeruginosa (ATCC27853).
(§3) Preparation of the Preculture: Mueller Hinton Agar plates were inoculated with frozen biological strain in order to obtain separate colonies and the plates were incubated during 24 h at 35-37° C. 3 colonies of similar aspect were picked out, resuspended in 5 mL of fresh Mueller Hinton broth 1× (MHB) and incubated with shaking (160 rpm) at 35-37° C. overnight.
(§4) 0.1 mL of bacteria in exponential phase were suspended in 9.9 mL of MHB (1:100 dilution). 0.1 mL of the 1:100 dilution were dispensed into the wells of microplates containing 0.1 ml of serial compounds dilutions to yield ca. 5×10^5 CFU/mL. In parallel, the stocks solutions of chemical compounds were first diluted in appropriate solvent to a final concentration of 5 mg/mL. 8 μL were dispended into the first wells of the microplates containing 0.1 ml of sterile broth and a 0.5 cascade dilution was performed in MHB from 0.2 mg/mL. One control was made for each strain tested. […] Tests were performed in triplicate.
(§5) Reading of the Results: After incubation, the filter was replaced with a transparent film, and an optical density reading was then taken in an iEMS plate spectrophotometer at 620 nm. Calculation of the minimum inhibitory concentration (MIC) was performed.
(In general: Broth dilution looks for growth in wells or tubes with falling amounts of substance.)

In experiment [2] the test system is Enterococcus faecalis (ATCC29212). In words: Microdilution MIC assay (CLSI-based), E. faecalis. In kind it is cell-based. Conditions: 20 hours incubation at 35-37° C., MHB; for MIC: read-out: Minimum inhibitory concentration E. faecalis ATCC29212. As for the experimental part:
as §1, §2, §3, §4, §5

The test system of experiment [3] is Escherichia coli (ATCC28922). The experiment is described as follows: Microdilution MIC assay (CLSI-based), E. coli. It counts as cell-based. The following applies: 20 hours incubation at 35-37° C., MHB; for MIC: read-out: Minimum inhibitory concentration E. coli ATCC28922. As for the experimental part: as §1, §2, §3, §4, §5
Experiment [4] has as its system Pseudomonas aeruginosa (ATCC27853). The experiment is described as follows: Microdilution MIC assay (CLSI-based), P. aeruginosa. In kind it is cell-based. The following applies: 20 hours incubation at 35-37° C., MHB; for MIC: read-out: Minimum inhibitory concentration P. aeruginosa ATCC27853. As to the method:
as §1, §2, §3, §4, §5

In another experiment the test system is CHO-K1 cells. The experiment is described as follows: WST1 cytotoxicity test. Conditions: Cricetulus griseus, CHO-K1, 24 h, WST1, 24 hours at 37° C.; read-out: IC50 CHO. It counts as cell-based, Chinese hamster. The source says: Cytotoxicity: The test WST1 was used to measure the cytotoxic activity of the compounds of the invention. The test WST1 is a colorimetric test allowing to measure the viability and the degree of cell proliferation. It is based on cleavage of the colorless tetrazolium salts WST-1 (4—[3-(4-iodophenyl)-2-(4-nitrophenyl)-2H-5-tetrazolio]-1,3-benzene disulfonate) with mitochondrial dehydrogenases to the yellow-colored formazan derivative, which may be quantified by spectrophotometry at 420-480 nm. The WST1 test was performed on Chinese hamster ovary (CHO) cells. The CHO-K1 cells (ATCC, USA) were kept in culture in McCoy's 5A medium supplemented with 10% fetal calf serum, 2 mM of L-glutamine and a mixture of penicillin-streptomycin (100 U/ml: 10 μg/mL). The culture was incubated at 37° C. under an atmosphere enriched in CO2 (5%), and subcultured every two days. The cells were transferred into 96-well plates (25,000 cells/mL) in whole McCoy's 5A medium, and maintained for 24 hours at 37° C. under a humid atmosphere enriched in CO2 (5%). Increasing concentrations of tested compounds were added to the wells, each compound was tested in replicates and 8 growth controls containing the cells in the medium alone were included in each series of tests. After 24 hours at 37° C. (5% CO2), the culture medium was removed, the cells were rinsed in phosphate buffer (PBS) and 50 μL of PBS containing 10% of reagent WST1 were added to each well. After 20 minutes of incubation at 37° C., the results were read by spectrophotometry at 450 nm. The results are expressed in dose-response relationships, modeled by nonlinear regression analysis using the TableCurve software.
Cytotoxicity: The same WST1 test as described in Example 2 above was used.
A general note: Tetrazolium assays rely on reduction of a dye to a coloured formazan, in cell work by metabolically active cells.

The mark [5] stands for this setting: Staphylococcus aureus, ATCC25923, 20 h.
The mark [6] stands for this setting: Enterococcus faecalis, ATCC29212, 20 h.
The mark [7] stands for this setting: Escherichia coli, ATCC28922, 20 h.
Where [8] appears, read: Pseudomonas aeruginosa, ATCC27853, 20 h.

Usually IC50 stands for the point on the concentration scale where inhibition reaches its midpoint. In the case of `COC(=O)[C@@H](NC(=O)CC[C@@H](C)[C@H]1CC[C@H]2[C@@H]3[C@H](O)C[C@@H]4CC(NCCCNCCCCNCCCN)CC[C@]4(C)[C@H]3CC[C@]12C)C(C)C` (mixture of isomers) [Compound S001, methyl ((4R)-4-((3S,5S,7R,10S,13R,17R)-3-((3-((4-((3-aminopropyl)amino)butyl)amino)propyl)amino)-7-hydroxy-10,13-dimethylhexadecahydro-1H-cyclopenta[a]phenanthren-17-yl)pentanoyl)valinate], the MIC in experiment [1] (setting [5]) is 3.12 µM and 2 µg/mL; in experiment [2] (setting [6]), 25 µM and 16 µg/mL; in experiment [3] (setting [7]) it was 12.5 µM and 8 µg/mL; in experiment [4] (setting [8]) it was 12.5 µM and 8 µg/mL. The IC50 with CHO-K1 cells is 4.41 µM and 3.04 µg/mL.

As for `COC(=O)[C@@H](NC(=O)CC[C@@H](C)[C@H]1CC[C@H]2[C@@H]3[C@H](O)C[C@@H]4CC(NCCCN5CCN(CCCN)CC5)CC[C@]4(C)[C@H]3CC[C@]12C)C(C)C` (mixture of isomers) [Compound S002, methyl ((4R)-4-((3S,5S,7R,10S,13R,17R)-3-((3-(4-(3-aminopropyl)piperazin-1-yl)propyl)amino)-7-hydroxy-10,13-dimethylhexadecahydro-1H-cyclopenta[a]phenanthren-17-yl)pentanoyl)valinate], the MIC was 25 µM and 16 µg/mL in experiment [1] (setting [5]); 50 µM and 32 µg/mL in experiment [2] (setting [6]); 100 µM and 64 µg/mL in experiment [3] (setting [7]); 100 µM and 64 µg/mL in experiment [4] (setting [8]). Besides, the IC50 in the experiment on CHO-K1 cells was 93.3 µM and 64.2 µg/mL.

Regarding `COC(=O)[C@@H](NC(=O)CC[C@@H](C)[C@H]1CC[C@H]2[C@@H]3[C@H](O)C[C@@H]4CC(NCCCN(CCCN)CCCN)CC[C@]4(C)[C@H]3CC[C@]12C)C(C)C` (mixture of isomers) [Compound S003, methyl ((4R)-4-((3S,5S,7R,10S,13R,17R)-3-((3-(bis(3-aminopropyl)amino)propyl)amino)-7-hydroxy-10,13-dimethylhexadecahydro-1H-cyclopenta[a]phenanthren-17-yl)pentanoyl)valinate], the MIC in experiment [1] (setting [5]) was 6.25 µM and 4 µg/mL; in experiment [2] (setting [6]), 50 µM and 32 µg/mL; in experiment [3] (setting [7]), 100 µM and 64 µg/mL; in experiment [4] (setting [8]) it was 100 µM and 64 µg/mL. The IC50 in the experiment with CHO-K1 cells was 165 µM and 111 µg/mL.

With `COC(=O)[C@H](NC(=O)CC[C@@H](C)[C@H]1CCC2C3C(CC[C@@]21C)[C@@]1(C)CC[C@H](NCCCNCCCN)C[C@H]1C[C@H]3O)C(C)C` (stereo partly drawn) [Compound S021, methyl ((4R)-4-((3S,5S,7R,10S,13R,17R)-3-((3-((3-aminopropyl)amino)propyl)amino)-7-hydroxy-10,13-dimethylhexadecahydro-1H-cyclopenta[a]phenanthren-17-yl)pentanoyl)-D-valinate], in experiment [1], the “Minimum inhibitory concentration S. aureus ATCC25923” value is 8 µg/mL (≈ 12.9 µM) and the MIC is reported as 12.5 µM (≈ 7.74 µg/mL). In experiment [2], the “Minimum inhibitory concentration E. faecalis ATCC29212” value came to 32 µg/mL (≈ 51.7 µM) and the MIC amounted to 50 µM (≈ 30.9 µg/mL). Besides, in experiment [3], the “Minimum inhibitory concentration E. coli ATCC28922” value stood at 32 µg/mL (≈ 51.7 µM) and the MIC came out at 50 µM (≈ 30.9 µg/mL). For the same molecule, in experiment [4], the “Minimum inhibitory concentration P. aeruginosa ATCC27853” value was found to be 32 µg/mL (≈ 51.7 µM) and the MIC is on record as 50 µM (≈ 30.9 µg/mL).

In the case of `COC(=O)CNC(=O)CC[C@@H](C)[C@H]1CCC2C3C(CC[C@@]21C)[C@@]1(C)CC[C@H](NCCCNCCCCNCCCN)C[C@H]1C[C@H]3O` (stereo partly drawn) [Compound S027, methyl ((4R)-4-((3S,5S,7R,10S,13R,17R)-3-((3-((4-((3-aminopropyl)amino)butyl)amino)propyl)amino)-7-hydroxy-10,13-dimethylhexadecahydro-1H-cyclopenta[a]phenanthren-17-yl)pentanoyl)glycinate], in experiment [1], the “Minimum inhibitory concentration S. aureus ATCC25923” value was found to be 4 µg/mL (≈ 6.17 µM) and the MIC was 6.25 µM (≈ 4.05 µg/mL). In experiment [2], the “Minimum inhibitory concentration E. faecalis ATCC29212” value was determined as 16 µg/mL (≈ 24.7 µM) and the MIC is 25 µM (≈ 16.2 µg/mL). Also, in experiment [3], the “Minimum inhibitory concentration E. coli ATCC28922” value is 8 µg/mL (≈ 12.3 µM) and the MIC is on record as 12.5 µM (≈ 8.1 µg/mL). Further, in experiment [4], the “Minimum inhibitory concentration P. aeruginosa ATCC27853” value was determined as 32 µg/mL (≈ 49.4 µM) and the MIC turned out to be 50 µM (≈ 32.4 µg/mL).

With `COC(=O)[C@H](Cc1ccccc1)NC(=O)CC[C@@H](C)[C@H]1CCC2C3C(CC[C@@]21C)[C@@]1(C)CC[C@H](NCCCCCCCCCCN)C[C@H]1C[C@H]3O` (stereo partly drawn) [Compound S032, methyl ((4R)-4-((3S,5S,7R,10S,13R,17R)-3-((10-aminodecyl)amino)-7-hydroxy-10,13-dimethylhexadecahydro-1H-cyclopenta[a]phenanthren-17-yl)pentanoyl)-L-phenylalaninate], the MIC in experiment [1] (setting [5]) was 50 µM and 32 µg/mL; in experiment [2] (setting [6]), 12.5 µM and 8 µg/mL; in experiment [3] (setting [7]), 50 µM and 32 µg/mL; in experiment [4] (setting [8]) it was 200 µM and 128 µg/mL.

Consider `COC(=O)[C@H](Cc1ccccc1)NC(=O)CC[C@@H](C)[C@H]1CCC2C3CC[C@@H]4C[C@@H](NCCCN(CCCN)CCCN)CC[C@]4(C)C3C[C@H](O)[C@@]21C` (stereo partly drawn) [Compound S055, methyl ((4R)-4-((3S,5R,10S,12S,13R,17R)-3-((3-(bis(3-aminopropyl)amino)propyl)amino)-12-hydroxy-10,13-dimethylhexadecahydro-1H-cyclopenta[a]phenanthren-17-yl)pentanoyl)-L-phenylalaninate], for which the MIC in experiment [1] (setting [5]) is 50 µM and 32 µg/mL; in experiment [2] (setting [6]), 50 µM and 32 µg/mL; in experiment [3] (setting [7]), 25 µM and 16 µg/mL; in experiment [4] (setting [8]) it was 100 µM and 64 µg/mL.

Turning to `COC(=O)[C@@H](NC(=O)CC[C@@H](C)[C@H]1CCC2C3CC[C@@H]4C[C@@H](NCCCN5CCN(CCCN)CC5)CC[C@]4(C)C3CC[C@@]21C)C(C)C` (stereo partly drawn) [Compound S056, methyl ((4R)-4-((3S,5R,10S,13R,17R)-3-((3-(4-(3-aminopropyl)piperazin-1-yl)propyl)amino)-10,13-dimethylhexadecahydro-1H-cyclopenta[a]phenanthren-17-yl)pentanoyl)-L-valinate], the MIC was 200 µM and 128 µg/mL in experiment [1] (setting [5]); 100 µM and 64 µg/mL in experiment [2] (setting [6]); 200 µM and 128 µg/mL in experiment [3] (setting [7]); > 200 µM and > 128 µg/mL in experiment [4] (setting [8]).

Values taken from patent US20260250312A1, “ANTIBACTERIAL COMPOUNDS ELIMINATING DORMANT BACTERIAL CELLS” (UNIVERSITÉ D'AIX-MARSEILLE, priority 2022, published 2026).
